According to PMC9147789, “Development and Validation of a Novel LC-MS/MS Method for the Simultaneous Determination of Abemaciclib, Palbociclib, Ribociclib, Anastrozole, Letrozole, and Fulvestrant in Plasma Samples: A Prerequisite for Personalized Breast Cancer Treatment” (Pharmaceuticals, 2022):

Experiments:
[1] = LC-MS/MS quantitation of drugs in single-point patient plasma samples (therapeutic drug monitoring); format: in vivo, human; conditions: for concentration at 27 day: sampling day 27 (off-treatment week); for concentration at 1 h: patient 4
Description: Samples from ten women (ages 35 to 78, median 50.5 years) receiving regular treatment with a combination of a CDK4/6 inhibitor (PAL, RIB or ABE) and endocrine therapy (ANA, LET, FUL or exemestane, EXE) were obtained and analyzed using this LC-MS method. The samples were mostly taken in the elimination phase, during the patients’ regular visit to the hospital before the next dose administration, except in the case of patient 4 (sampling 1 h after dose administration). The aromatase inhibitors and ABE are continuously administered as single daily doses, FUL is a once-monthly intramuscular injection, and the dosing regimen of PAL and RIB involves a week off treatment every 21 days to minimize treatment-induced neutropenia.
The samples were analyzed against freshly prepared calibration curves. The results are listed in Table 7, while the accompanying chromatograms and mass spectra are included in the Supplementary Materials, Section 1, Figures S1–S29.
Healthy and patient blood samples were collected and pre-treated at the University Hospital Centre Zagreb, with signed informed consent. Patients receiving a combination of a CDK4/6 inhibitor and endocrine therapy as regular treatment for at least 4 months were enrolled.
Whole blood was collected in containers with K2-EDTA anticoagulant and centrifuged for 10 min at 1500 g; the supernatant was then withdrawn and stored at −18 °C (blank plasma) or −80 °C (patients’ plasma). Hemolyzed plasma was obtained by briefly freezing a whole blood sample at −18 °C before continuing with the procedure.
(§1) Calibration and QC samples were prepared by diluting 5 µL of the appropriate working solutions of the analytes with 45 µL of blank plasma in 1.5 mL polypropylene centrifuge tubes. In case of patient sample analysis, an aliquot of 50 µL of patient plasma was used. Proteins were precipitated by adding 200 µL of ACN, after which the samples were vortex-mixed for 10 s and centrifuged at 2000 g for 5 min. The resulting supernatant was collected and 200 µL was evaporated to dryness in a vacuum evaporator at room temperature. The dry residue was dissolved in 40 µL of 65% methanol, while 5 µL was injected into the chromatographic system.

[2] = plasma; cited from earlier work
[3] = Stability of the analytes in plasma (bench top, autosampler, freeze-thaw, long-term); format: physicochemical, human; conditions: for Stability Bias (%) 1 FT Cycle (30 min, −18–25 °C) / Stability Bias (%) 2 FT Cycles (30 min, −18–25 °C) / Stability Bias (%) 3 FT Cycles (30 min, −18–25 °C) / Stability Bias (%) Long-Term (2 Weeks, −18 °C): plasma; for Stability Bias (%) 1 FT Cycle (30 min, −18–25 °C) / Stability Bias (%) 2 FT Cycles (30 min, −18–25 °C) / Stability Bias (%) 3 FT Cycles (30 min, −18–25 °C) / Stability Bias (%) Long-Term (2 Weeks, −18 °C) / Stability Bias (%) Autosampler (10 h, 10 °C): N = 3; for Stability Bias (%) Autosampler (10 h, 10 °C): processed plasma sample; for Stability Bias (%) Bench Top (2 h, 25 °C): unprocessed plasma, N = 3, vs fresh QC
Description: Stability of the stock and working solutions was determined in the preliminary studies. […] Patient plasma samples were stored long-term at −80 °C. Since adequate stability of plasma samples was proven at −18 °C, it was deemed acceptable at lower temperatures as well. Lower- and higher-concentration QC samples were prepared in triplicate for each condition and time point and were analyzed against QC samples freshly prepared in triplicate.

[4] = set-up: method as in PMID 28540640; conditions: plasma; reported PK/PD studies; cited from earlier work
[5] = Clinical pharmacokinetic evaluation of RIB in one patient, first day of a treatment cycle, non-compartmental analysis; format: in vivo, human; conditions: 600 mg oral dose
Description: Finally, we applied our fully validated method to evaluate the pharmacokinetic disposition of RIB in a patient during the first day of a treatment cycle. The plasma samples were prepared in the same manner as the single-point study samples and quantitated using a freshly prepared calibration curve. No additional dilution or preconcentration was necessary, as all the determined concentrations fell within the validated range. The corresponding data are available in Table S1 of the Supplementary Materials, Section 2 (Results of the pharmacokinetic study).
Pharmacokinetic data were analyzed with the PK solver Excel extension, using the linear trapezoidal model for non-compartmental analysis of plasma data after extravascular input. […] The beginning of the elimination phase was estimated around three hours after dosing. Ribociclib is administered as an instant release tablet dosage form, so no absorption lag was neither expected nor observed.
as §1

[6] = higher QC level (RIB 2500, ABE 1500, PAL 250, ANA 100, LET 250, FUL 500 ng/mL)
[7] = lower QC level (RIB 62.5, ABE 37.5, PAL 6.2, ANA 2.5, LET 6.25, FUL 12.5 ng/mL)

Stability Bias (%) 1 FT Cycle (30 min, −18–25 °C) [3, 6] | Stability Bias (%) 2 FT Cycles (30 min, −18–25 °C) [3, 6] | Stability Bias (%) 3 FT Cycles (30 min, −18–25 °C) [3, 6] | Stability Bias (%) Long-Term (2 Weeks, −18 °C) [3, 6] | Stability Bias (%) 1 FT Cycle (30 min, −18–25 °C) [3, 7] | Stability Bias (%) 2 FT Cycles (30 min, −18–25 °C) [3, 7] | Stability Bias (%) 3 FT Cycles (30 min, −18–25 °C) [3, 7] | Stability Bias (%) Long-Term (2 Weeks, −18 °C) [3, 7] | Stability Bias (%) Autosampler (10 h, 10 °C) [3, 6] | Stability Bias (%) Autosampler (10 h, 10 °C) [3, 7] | Stability Bias (%) Bench Top (2 h, 25 °C) [3, 6] | Stability Bias (%) Bench Top (2 h, 25 °C) [3, 7] | Compound | Expected literature range Cmin–Cmax [2] | also measured
6.65% | 8.39% | −0.69% | −0.40% | −7.88% | −2.80% | −3.98% | 3.09% | 4.89% | 2.27% | −0.62% | −10.33% | CC(C)(C#N)c1cc(Cn2cncn2)cc(C(C)(C)C#N)c1 [ANA, anastrozole] | 22–52.6 [27] ng/mL | Plasma Concentration ([1]; patient 5, ANA 1 mg daily): 43.96 ng/mL
6.35% | −1.65% | −7.90% | −3.08% | 14.97% | 1.86% | 2.81% | 12.29% | 14.95% | 13.69% | −4.37% | 3.08% | CC(=O)c1c(C)c2cnc(Nc3ccc(N4CCNCC4)cn3)nc2n(C2CCCC2)c1=O [PAL, palbociclib] | 72.8–185.5 [26] ng/mL | concentration at 27 day ([1]; human, plasma, patient 8, PAL 125 mg daily): 7.55 ng/mL; Plasma Concentration (ng/mL) ([1]; patient 9, PAL 125 mg daily, sampling day 28 (off-treatment week)): <LOQ; Plasma Concentration (ng/mL) ([1]; patient 10, PAL 125 mg daily, sampling day 23 (off-treatment week)): <LOD
9.37% | 5.68% | 1.13% | 3.09% | 13.23% | −7.43% | 14.07% | 7.60% | 14.88% | 11.51% | −0.10% | 9.09% | CCN1CCN(Cc2ccc(Nc3ncc(F)c(-c4cc(F)c5nc(C)n(C(C)C)c5c4)n3)nc2)CC1 [ABE, abemaciclib] | 102.65–1381 [25] ng/mL | Minimal threshold concentration for efficacy [4]: 200 ng/mL; Plasma Concentration ([1]; patient 1, ABE 300 mg daily, continuous, before next dose): 425.79 ng/mL
11.10% | −1.66% | −4.69% | −10.69% | 7.88% | 1.69% | 6.00% | 13.89% | −6.47% | 8.95% | 4.96% | 6.01% | CN(C)C(=O)c1cc2cnc(Nc3ccc(N4CCNCC4)cn3)nc2n1C1CCCC1 [RIB, ribociclib] | 711–3500 [24] ng/mL | concentration at 24 day ([1]; human, plasma, oral, patient 2, RIB 600 mg daily, sampling day 24 of cycle (off-treatment week)): 57.4 ng/mL; concentration at 16 day ([1]; human, plasma, oral, patient 3, RIB 600 mg daily, sampling day 16 (trough, steady state)): 682 ng/mL; concentration at 1 h ([1]; human, plasma, oral, RIB 600 mg daily, sampling day 1, 1 h after dose administration): 1520 ng/mL; concentration at 12 day ([1]; human, plasma, oral, patient 5, RIB 600 mg daily, sampling day 12 (trough, steady state)): 1190 ng/mL; concentration at 28 day ([1]; human, plasma, oral, patient 6, RIB 600 mg daily, sampling day 28 (off-treatment week)): 27.2 ng/mL; concentration at 27 day ([1]; human, plasma, oral, patient 7, RIB 600 mg daily): 40.7 ng/mL; Elimination constant ([5]; non-compartmental analysis, PK solver): 0.022 h⁻¹; Cmax ([5]; human, first day of treatment cycle, plasma, read-out: Maximum concentration (Cmax)): 1830 ng/mL; half-life ([5]; human, plasma, non-compartmental analysis, PK solver, read-out: Elimination half-life (converted)): 31.6 h; concentration at 0 h ([5]; human, plasma, t 0.00 h, read-out: CRIB (ng/mL) plasma concentration): 945 ng/mL; concentration at 0.25 h ([5]; human, plasma, t 0.25 h, read-out: CRIB (ng/mL) plasma concentration): 1050 ng/mL; concentration at 0.5 h ([5]; human, plasma, t 0.50 h, read-out: CRIB (ng/mL) plasma concentration): 1240 ng/mL; concentration at 1 h ([5]; human, plasma, t 1.00 h, read-out: CRIB (ng/mL) plasma concentration): 1520 ng/mL; concentration at 3 h ([5]; human, plasma, t 3.00 h, read-out: CRIB (ng/mL) plasma concentration): 1830 ng/mL; concentration at 6 h ([5]; human, plasma, t 6.00 h, read-out: CRIB (ng/mL) plasma concentration): 1710 ng/mL; concentration at 12 h ([5]; human, plasma, t 12.00 h, read-out: CRIB (ng/mL) plasma concentration): 1500 ng/mL
2.07% | −0.26% | −7.61% | −7.75% | −0.06% | −6.52% | −3.50% | −10.44% | −0.29% | 6.11% | 6.16% | −6.81% | N#Cc1ccc(C(c2ccc(C#N)cc2)n2cncn2)cc1 [LET, letrozole] | 28.4–349.2 [28] ng/mL | concentration at 1 h ([1]; human, plasma, LET 2.5 mg daily, 1 h after dose administration): 139 ng/mL; Plasma Concentration ([1]; patient 1, LET 2.5 mg daily): 109.99 ng/mL; Plasma Concentration ([1]; patient 2, LET 2.5 mg daily): 141.11 ng/mL; Plasma Concentration ([1]; patient 3, LET 2.5 mg daily): 146.21 ng/mL
2.23% | 4.49% | −7.51% | −1.62% | −14.59% | −13.24% | −8.90% | −5.01% | −8.06% | 7.38% | 2.32% | −9.36% | C[C@]12CC[C@@H]3c4ccc(O)cc4C[C@@H](CCCCCCCCC[S+]([O-])CCCC(F)(F)C(F)(F)F)[C@H]3[C@@H]1CC[C@@H]2O (stereo partly drawn) [FUL, fulvestrant] | 16–25 [29] ng/mL | Plasma Concentration ([1]; patient 7, FUL 500 mg monthly, intramuscular): 20.73 ng/mL; Plasma Concentration ([1]; patient 8, FUL 500 mg monthly, intramuscular): 22.69 ng/mL; Plasma Concentration ([1]; patient 9, FUL 500 mg monthly, intramuscular): 22.13 ng/mL; Plasma Concentration ([1]; patient 10, FUL 500 mg monthly, intramuscular): 24.56 ng/mL
